Read-outs that look alike come from different tables or passages of the source.
Tests used:
Test in all cases: Post-Emergent Test I herbicidal activity
Assay type in all cases: in vivo
[1] = tested on: ECHCG: barnyardgrass (Echinochloa crus-galli); conditions: post-emergence, 336 h, Table 3, 140 g ai/ha, read-out: Visual Growth Reduction (%)-14 Days after Application ECHCG
Procedure, shortened: (§1)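 Greenhouse-grown seedlings (peat-based mix, pH 6.0–6.8; ~15 h photoperiod, 23–29 °C day) were sprayed post-emergence at first/second true-leaf stage with compound in acetone/DMSO/aqueous crop-oil–surfactant carrier at 187 L/ha, using a twofold rate series. Injury was scored visually after 14 d (0–100%); GR20/GR50/GR80 derived by probit analysis.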

[2] = tested on: ORYSA: rice (Oryza sativa); conditions: post-emergence, 336 h, Table 3, 140 g ai/ha, read-out: Visual Growth Reduction (%)-14 Days after Application ORYSA
Procedure, shortened: as §1

[3] = tested on: CYPES: yellow nutsedge (Cyperus esculentus); conditions: post-emergence, 336 h, Table 3, 140 g ai/ha, read-out: Visual Growth Reduction (%)-14 Days after Application CYPES
Procedure, shortened: as §1

[4] = tested on: EPHHL: wild poinsettia (Euphorbia heterophylla); conditions: post-emergence, 336 h, Table 3, 140 g ai/ha, read-out: Visual Growth Reduction (%)-14 Days after Application EPHHL
Procedure, shortened: as §1

[5] = tested on: ABUTH: velvetleaf (Abutilon theophrasti)
Procedure, shortened: as §1

[6] = tested on: CHEAL: lambsquarters (Chenopodium album)
Procedure, shortened: as §1

ZEAMX: corn (Zea mays) = tested on: ZEAMX: corn (Zea mays)
Procedure, shortened: as §1

[7] = Table 4, growth reduction of 20% of plant growth, 14 days after application, probit analysis
[8] = Table 4, growth reduction of 50% of plant growth, 14 days after application, probit analysis
[9] = Table 4, growth reduction of 80% of plant growth, 14 days after application, probit analysis

SMILES: COc1c(C(=O)O)nc(-c2ccc(Cl)cc2)c(F)c1N [Compound 47]
- pest or weed control at 140 g/ha [1]: 100%
- pest or weed control at 140 g/ha [2]: 45%
- pest or weed control at 140 g/ha [3]: 100%
- pest or weed control at 140 g/ha [4]: 100%
- pest or weed control at 140 g/ha ([5]; Abutilon theophrasti, post-emergence, 336 h, Table 3, 140 g ai/ha, read-out: Visual Growth Reduction (%)-14 Days after Application ABUTH): 100%
- pest or weed control at 8.75 g/ha ([5]; Abutilon theophrasti, post-emergence, 336 h, Table 4, 8.75 g ai/ha, read-out: Visual Growth Reduction (%)-14 Days after Application ABUTH): 90%
- pest or weed control at 17.5 g/ha ([5]; Abutilon theophrasti, post-emergence, 336 h, Table 4, 17.5 g ai/ha, read-out: Visual Growth Reduction (%)-14 Days after Application ABUTH): 95%
- pest or weed control at 35 g/ha ([5]; Abutilon theophrasti, post-emergence, 336 h, Table 4, 35 g ai/ha, read-out: Visual Growth Reduction (%)-14 Days after Application ABUTH): 95%
- pest or weed control at 70 g/ha ([5]; Abutilon theophrasti, post-emergence, 336 h, Table 4, 70 g ai/ha, read-out: Visual Growth Reduction (%)-14 Days after Application ABUTH): 100%
- pest or weed control at 140 g/ha ([5]; Abutilon theophrasti, post-emergence, 336 h, Table 4, 140 g ai/ha, read-out: Visual Growth Reduction (%)-14 Days after Application ABUTH): 100%
- GR20 ABUTH [5, 7]: <8.75 g ai/ha
- GR50 ABUTH [5, 8]: <8.75 g ai/ha
- GR80 ABUTH [5, 9]: <8.75 g ai/ha
- pest or weed control at 140 g/ha ([6]; Chenopodium album, post-emergence, 336 h, Table 3, 140 g ai/ha, read-out: Visual Growth Reduction (%)-14 Days after Application CHEAL): 100%
- pest or weed control at 8.75 g/ha ([6]; Chenopodium album, post-emergence, 336 h, Table 4, 8.75 g ai/ha, read-out: Visual Growth Reduction (%)-14 Days after Application CHEAL): 90%
- pest or weed control at 17.5 g/ha ([6]; Chenopodium album, post-emergence, 336 h, Table 4, 17.5 g ai/ha, read-out: Visual Growth Reduction (%)-14 Days after Application CHEAL): 100%
- pest or weed control at 35 g/ha ([6]; Chenopodium album, post-emergence, 336 h, Table 4, 35 g ai/ha, read-out: Visual Growth Reduction (%)-14 Days after Application CHEAL): 100%
- pest or weed control at 70 g/ha ([6]; Chenopodium album, post-emergence, 336 h, Table 4, 70 g ai/ha, read-out: Visual Growth Reduction (%)-14 Days after Application CHEAL): 100%
- Visual Growth Reduction (%)-14 Days after Application CHEAL ([6]; Table 4, 140 g ai/ha): 100%
- GR20 CHEAL [6, 7]: <8.75 g ai/ha
- GR50 CHEAL [6, 8]: <8.75 g ai/ha
- GR80 CHEAL [6, 9]: <8.75 g ai/ha
- GR20 ZEAMX (ZEAMX: corn (Zea mays); [7]): <8.75 g ai/ha
- GR50 ZEAMX (ZEAMX: corn (Zea mays); [8]): 12.6 g ai/ha
- GR80 ZEAMX (ZEAMX: corn (Zea mays); [9]): 74.1 g ai/ha
- pest or weed control at 140 g/ha (ZEAMX: corn (Zea mays); Zea mays, post-emergence, 336 h, Table 3, 140 g ai/ha, read-out: Visual Growth Reduction (%)-14 Days after Application ZEAMX): 85%
- pest or weed control at 8.75 g/ha (ZEAMX: corn (Zea mays); Zea mays, post-emergence, 336 h, Table 4, 8.75 g ai/ha, read-out: Visual Growth Reduction (%)-14 Days after Application ZEAMX): 40%
- pest or weed control at 17.5 g/ha (ZEAMX: corn (Zea mays); Zea mays, post-emergence, 336 h, Table 4, 17.5 g ai/ha, read-out: Visual Growth Reduction (%)-14 Days after Application ZEAMX): 55%
- pest or weed control at 35 g/ha (ZEAMX: corn (Zea mays); Zea mays, post-emergence, 336 h, Table 4, 35 g ai/ha, read-out: Visual Growth Reduction (%)-14 Days after Application ZEAMX): 75%
- pest or weed control at 70 g/ha (ZEAMX: corn (Zea mays); Zea mays, post-emergence, 336 h, Table 4, 70 g ai/ha, read-out: Visual Growth Reduction (%)-14 Days after Application ZEAMX): 80%
- pest or weed control at 140 g/ha (ZEAMX: corn (Zea mays); Zea mays, post-emergence, 336 h, Table 4, 140 g ai/ha, read-out: Visual Growth Reduction (%)-14 Days after Application ZEAMX): 85%
